≈ marks a conversion by molar mass, not a printed value. Peptide text beside a SMILES is read from it.
Legend:
Format in all cases: cell-based
[1] = tested on: Pseudomonas aeruginosa PAO1 (wt strain); conditions: for Improvement over Native Sequence (SEQ No. 2) P. aeruginosa PAO1 wt: fold, from MIC in 1/8 MHB
Procedure: (§1) The minimum inhibitory concentrations (MIC) of the peptides were determined in a double assay of triplicates using a positive control sample (gentamycin) and a negative control sample (0.9% NaCl solution), according to a modified protocol from Wiegand et al. (Wiegand, 2008).
(§2) For this purpose, the peptides were dissolved in water and were diluted in a double dilution series with 1/8 MH (eight-fold diluted Mueller-Hinton-Medium—2.6 g/L, Merck) in sterile 96-well, plates (Greiner Bio-One GmbH) in twelve dilution steps from 128 μg/mL to 62.5 ng/mL. Overnight cultures were adjusted using ⅛ MHB to approximately 1.5×10^7 colony forming units per mL. Of these, 50 μL of peptide solution per well was mixed with 50 μL bacteria solution each to obtain an initial concentration of […] bacteria per well. After 20 hours of incubation at 37′C, the absorption was determined at 595 nm (microplate reader, Wallac Victor3, Perkin Elmer). The minimum inhibitory concentration was identified as the lowest peptide concentration at which no bacterial growth could be detected.
(§3) In the experiment, the antibacterial activity of the peptides according to the invention in relation to the following bacterial strains was analyzed: Pseudomonas aeruginosa PAO1 (wt strain), Pseudomonas aeruginosa DSM 9644, Staphylococcus aureus DSM 1104/ATCC 25923, Staphylococcus aureus ATCC 6247, Escherichia coli UB 1005 (F—, nalA37, metB1) and Escherichia coli ATCC25922.

[2] = tested on: Staphylococcus aureus DSM 1104/ATCC 25923; conditions: for MIC S. aureus ATCC 25923: DSM 1104; for Improvement over Native Sequence (SEQ No. 2) S. aureus ATCC 25923: fold, from MIC in 1/8 MHB
Procedure: as §1, §2, §3

[3] = tested on: Escherichia coli UB 1005; assay: Minimum inhibitory concentration (MIC), broth microdilution; conditions: for Improvement over Native Sequence (SEQ No. 2) E. coli UB1005: fold, from MIC in 1/8 MHB; for MIC E. coli UB1005: 1/8 MHB, Table 4
Procedure: as §1, §2, §3

SMILES	MIC P. aeruginosa PAO1 wt [1] [µg/mL]	Improvement over Native Sequence (SEQ No. 2) P. aeruginosa PAO1 wt [1]	MIC S. aureus ATCC 25923 [2] [µg/mL]	Improvement over Native Sequence (SEQ No. 2) S. aureus ATCC 25923 [2]	Improvement over Native Sequence (SEQ No. 2) E. coli UB1005 [3]	MIC E. coli UB1005 [3] [µg/mL]
CC[C@H](C)[C@H](NC(=O)[C@H](Cc1ccc(O)cc1)NC(=O)[C@@H](NC(=O)[C@@H]1CCCN1C(=O)[C@H](CCCNC(=N)N)NC(=O)[C@H](CC(N)=O)NC(=O)[C@H](CC(N)=O)NC(=O)CN)C(C)C)C(=O)N1CCC[C@H]1C(=O)N[C@@H](CCC(N)=O)C(=O)N1CCC[C@H]1C(=O)N[C@@H](CCCNC(=N)N)C(=O)N1CCC[C@H]1C(=O)N1CCC[C@H]1C(=O)N[C@@H](Cc1c[nH]cn1)C(=O)N[C@@H](CS)C(=O)N[C@@H](CCCNC(=N)N)C(=O)N[C@@H](CC(C)C)C(N)=O [compound 61] (H-GNNRPVYIPQPRPPHCRL-NH2; N-terminus assumed)	125 (≈ 59.1 µM)	4	32 (≈ 15.1 µM)	8	0	
CC[C@H](C)[C@H](NC(=O)[C@H](Cc1ccc(O)cc1)NC(=O)[C@@H](NC(=O)[C@H](CCCNC(=N)N)NC(=O)[C@H](CCCNC(=N)N)NC(=O)[C@H](CC(N)=O)NC(=O)[C@H](CC(N)=O)NC(=O)CN)C(C)C)C(=O)N1CCC[C@H]1C(=O)N[C@@H](CCC(N)=O)C(=O)N1CCC[C@H]1C(=O)N[C@@H](CCCNC(=N)N)C(=O)N1CCC[C@H]1C(=O)N1CCC[C@H]1C(=O)N[C@@H](Cc1c[nH]cn1)C(=O)N1CCC[C@H]1C(=O)N[C@@H](CCCNC(=N)N)C(=O)N[C@@H](CC(C)C)C(N)=O [compound 57] (H-GNNRRVYIPQPRPPHPRL-NH2; N-terminus assumed)	64 (≈ 29.5 µM)	8	32 (≈ 14.8 µM)	8	1	5 (≈ 2.31 µM)
CC[C@H](C)[C@H](NC(=O)[C@H](Cc1ccc(O)cc1)NC(=O)[C@@H](NC(=O)[C@@H]1CCCN1C(=O)[C@H](CCCNC(=N)N)NC(=O)[C@H](CC(N)=O)NC(=O)[C@H](CC(N)=O)NC(=O)CN)C(C)C)C(=O)N1CCC[C@H]1C(=O)N[C@@H](CCC(N)=O)C(=O)N1CCC[C@H]1C(=O)N[C@@H](CCCNC(=N)N)C(=O)N1CCC[C@H]1C(=O)N[C@@H](CS)C(=O)N[C@@H](Cc1c[nH]cn1)C(=O)N1CCC[C@H]1C(=O)N[C@@H](CCCNC(=N)N)C(=O)N[C@@H](CC(C)C)C(N)=O [compound 60] (H-GNNRPVYIPQPRPCHPRL-NH2; N-terminus assumed)	250 (≈ 118 µM)	2	16 (≈ 7.57 µM)	16	0	20 (≈ 9.46 µM)
CC[C@H](C)[C@H](NC(=O)[C@H](Cc1ccc(O)cc1)NC(=O)[C@@H](NC(=O)[C@@H]1CCCN1C(=O)[C@H](CCCNC(=N)N)NC(=O)[C@H](CC(N)=O)NC(=O)[C@H](Cc1c[nH]c2ccccc12)NC(=O)CN)C(C)C)C(=O)N1CCC[C@H]1C(=O)N[C@@H](CCC(N)=O)C(=O)N1CCC[C@H]1C(=O)N[C@@H](CCCNC(=N)N)C(=O)N1CCC[C@H]1C(=O)N1CCC[C@H]1C(=O)N[C@@H](Cc1c[nH]cn1)C(=O)N1CCC[C@H]1C(=O)N[C@@H](CCCNC(=N)N)C(=O)N[C@@H](CC(C)C)C(N)=O [compound 54] (H-GWNRPVYIPQPRPPHPRL-NH2; N-terminus assumed)	64 (≈ 29.4 µM)	8	63 (≈ 28.9 µM)	4	4	1.25 (≈ 0.574 µM)

Reference: patent US9556228B2 (Universitaet Leipzig, priority 2011, dated 2017)
